Laboratory results as given in patent EP2108954A1, “A test system for detecting intracellular cyclic nucleotide level and methods and uses thereof” (Max-Planck-Gesellschaft zur Förderung der Wissenschaften …, priority 2008, dated 2009).
Entries after “also recorded” stand apart in the source; their conditions may differ.

Experiments:
Or22a = biological target: T1, Or22a (Drosophila melanogaster, UniProt P81909); assay: Whole-cell patch-clamp of HEK293 cells expressing Or22a alone; type: cell-based; details: HEK293 cells transfected with Or22a alone, -60 mV, n = 6
T1 construct: expressed in transfected cells; host or cells: HEK293
T1 sequence (P81909 1-397): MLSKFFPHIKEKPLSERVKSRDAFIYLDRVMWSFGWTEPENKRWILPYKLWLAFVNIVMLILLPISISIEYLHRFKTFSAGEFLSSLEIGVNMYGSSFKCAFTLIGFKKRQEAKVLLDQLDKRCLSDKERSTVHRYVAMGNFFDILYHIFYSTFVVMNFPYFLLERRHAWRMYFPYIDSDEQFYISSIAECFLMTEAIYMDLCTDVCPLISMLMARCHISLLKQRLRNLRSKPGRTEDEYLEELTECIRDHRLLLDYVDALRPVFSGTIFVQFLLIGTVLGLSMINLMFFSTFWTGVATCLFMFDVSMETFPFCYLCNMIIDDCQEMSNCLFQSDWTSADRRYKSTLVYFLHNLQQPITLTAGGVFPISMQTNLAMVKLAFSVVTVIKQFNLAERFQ
Experimental: (§1) HEK293 cells were cultured as described by Wicher and colleagues (Wicher et al., J. Biol. Chem. 281, 3227-36 (2006)). In brief, HEK293 cells were cultured at a density of ∼2*10^4 per 35-mm dish and transfected with 1 µg pcDNA3-DOR22a-GFP and 1 µg pcDNA3-DOR83b-GFP (Neuhaus, et al., Nat. Neurosci. 8, 15-17 (2005); DNAs were a generous gift of Dr. E. Neuhaus and Dr. H. Hatt) using Roti-Fect transfection kit (Roth, Karlsruhe, Germany). In some experiments we transfected cells with pcDNA3-DOR22a-GFP or pcDNA3-DOR83b-GFP alone. We also examined the properties of DOR47a, which was cloned, using standard molecular biology methods into a pcDNA3.1(-) expression vector. To test for putative G-protein coupling, cells were transfected with the respective OR-DNA together with 1.5 µg hHCN2/pcDNA3 (provided by M. Biel, Munich, Germany), with 1 µg hKCNQ4/pcDNA3.1 or with 1 µg hCNGA2/pCMV6-XL4 (Origene, Rockville, MD, USA).
(§2) Ion currents in HEK293 cells were measured with the patch-clamp technology as described (Wicher et al, J. Biol. Chem. 281, 3227-36 (2006)). In brief, ion currents in HEK293 cells were measured at room temperature using whole-cell patch-clamp with appropriate compensation of series resistance and of capacitive currents. Additional experiments were performed in the outside-out configuration. […]

Or22a and Or83b = biological target: T2, Or22a and Or83b (Drosophila melanogaster, UniProt P81909+Q9VNB5); assay: Radioreceptor assay of cAMP content of HEK293 cells expressing Or22a and Or83b; type: cell-based; details: 100 nM Etb for 15 min; n = 3 experiments; control 1.28 ± 0.06
T2 construct: expressed in transfected cells; host or cells: HEK293
T2 sequence (P81909 1-397): T1 sequence (P81909 1-397)
T2 sequence (Q9VNB5 1-486): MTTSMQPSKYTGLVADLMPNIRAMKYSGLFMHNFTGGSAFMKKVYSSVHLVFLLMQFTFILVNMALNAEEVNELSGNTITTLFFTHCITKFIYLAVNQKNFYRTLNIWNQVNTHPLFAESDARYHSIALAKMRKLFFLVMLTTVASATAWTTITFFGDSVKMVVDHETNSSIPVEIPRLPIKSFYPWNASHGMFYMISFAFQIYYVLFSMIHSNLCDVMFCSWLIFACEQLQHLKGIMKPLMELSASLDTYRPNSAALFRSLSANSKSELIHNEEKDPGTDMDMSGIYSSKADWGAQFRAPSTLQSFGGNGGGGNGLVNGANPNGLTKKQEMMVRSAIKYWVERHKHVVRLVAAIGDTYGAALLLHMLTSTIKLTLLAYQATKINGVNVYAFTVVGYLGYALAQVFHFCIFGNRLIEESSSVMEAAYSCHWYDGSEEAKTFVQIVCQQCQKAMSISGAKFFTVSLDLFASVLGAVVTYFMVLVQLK
Experimental: Monolayers of HEK293 cells were incubated for 30 min in HEPES Ringer's buffer containing 1 mM isobutylmethylxanthine and stimulated with 100 nM Etb for 15 min. The reaction was stopped with 96% ethanol, and after evaporation, 50 mM Tris/4 mM EDTA (pH 7.5) was added.

hKCNQ4 = assay: Gq coupling test: KCNQ4 current in HEK293 cells coexpressing Or22a, Or83b and hKCNQ4; type: cell-based, human; details: increasing Etb concentrations; +40 mV
Experimental: as §1, §2

## CCCC(=O)OCC [Etb, ethyl butyrate]
Or22a
  inward current upon short Etb application: no current was observed
Or22a and Or83b
  cAMP level: 1.65 ± 0.10 pmol/mg protein
hKCNQ4
  effect on KCNQ4 current: remains unaffected; also recorded: had no effect
